Here are results for 32 molecules from patent US9415047B2, “Use of benzo five-membered nitrogen heterocyclic piperazine or piperidine derivatives” (Liaoning Emmy Biological Pharmaceutical Co., Ltd., priority 2012, dated 2016).

In assay [1] the test system is AD constricted rabbit aorta. Briefly: Relaxing effects on vascular smooth muscle constricted by adrenaline hydrochloride (AD) in vitro. The note with it: Oryctolagus cuniculus; relaxation of rabbit aorta constricted by adrenaline (10^−5 mol/L); mean±SEM, n=5. As to the method: Adrenaline hydrochloride (AD) (10^−5 mol/L) was added into a bath tube to induce constriction, when maximal constriction was achieved, the sample was completely flushed, K-H solution was changed for every 20 min. Contents in the tube was balanced for 60 min, when baseline recovered to be stable, the […] was added at the same concentration to induce constriction. When the later maximal constriction response was basically consistent with the former one, the prepared compound solutions were subsequently added, including compound II-1 to II-60 solutions (1×10^−8-1×10^−3 mol/L), compound II-84 to II-123 solutions (1×10^−10-1×10^−2 mol/L) and compound II-124 to II-157 solutions (1×10^−10˜1×10^−3 mol/L), to record the waveforms. Relaxing percentage of the compound was used as Y axis, maximal relaxation response was 100%, negative logarithm of different concentration was used as X axis, to draw dose effect curve (expressed in mean±SEM ( ? ), n=5). Compounds II-2 and II-3 had the most obvious relaxing effects (FIG. 1 and FIG. 8).

In assay [2] the test system is high kalium concentration constricted rabbit aorta. Briefly: Relaxing effects on vascular smooth muscle constricted by high kalium concentration in vitro. The note with it: Oryctolagus cuniculus, relaxation of rabbit aorta constricted by high kalium solution (K+ 60 mmol/L); mean±SEM, n=5. As to the method: (§1) Adrenaline hydrochloride (AD) (10^−5 mol/L) was added into a bath tube to induce constriction, when maximal constriction was achieved, the sample was completely flushed, K-H solution was changed for every 20 min. Contents in the tube was balanced for 60 min, when baseline recovered to be stable, K-H solution in the bath tube was replaced with high kalium concentration solution to induce constriction. When the later maximal constriction response was basically consistent with the former one, the prepared compound solutions were subsequently added, including compound II-1 to II-60 solutions (1×10^−8-1×10^−3 mol/L), compound II-84 to II-123 solutions (1×10^−10-1×10^−2 mol/L) and compound II-124 to II-157 solutions (1×10^−10-1×10^−3 mol/L), to record the waveforms. Relaxing percentage of the compound was used as Y axis, maximal relaxation response was 100%, negative logarithm of different concentration was used as X axis, to draw dose effect curve (expressed in mean±SEM ( ? ), n=5). Compounds II-2 and II-3 had the most obvious relaxing effects (FIG. 2 and FIG. 9).

The test system of assay [3] is NA constricted rabbit aorta. In words: Relaxing effects on vascular smooth muscle constricted by noradrenaline (NA) in vitro. The note with it: relaxation of rabbit aorta constricted by noradrenaline (10^−5 mol/L), mean±SEM, n=5; for EC50: Oryctolagus cuniculus. The procedure:
as §1, with “noradrenaline bitartrate (NA) (10^−5 mol/L)” for “K-H solution in the bath tube”, “added” for “replaced with high kalium concentration solution”, “compound” for “compound II-1 to II-60 solutions (1×10^−8-1×10^−3 mol/L), compound”, “mol/L),” for “mol/L) and”, “n=5).” for “n=5). Compounds II-2 and II-3 had the most obvious relaxing effects (FIG. 2 and FIG. 9).”

By EC50 is commonly meant the concentration at which the effect is half-maximal. Low readings indicate greater potency, high ones weaker potency. Turning to `Fc1ccc2c(N3CCN(CCCn4nnc5ccccc54)CC3)noc2c1` [II-37, 6-fluoro-3-(4-(3-(1H-benzotriazole-1-yl)propyl)piperazine-1-yl)benzisoxazole], the EC50 in assay [1] is 2.75 µM; in assay [2], 3.72 µM.

`COc1cccc(N2CCN(CCCCn3nnc4ccccc43)CC2)c1` [II-40, 1-(4-(4-(3-methoxyphenyl)piperazine-1-yl)butyl)-1H-benzotriazole]: the results for the EC50 in assay [1] and in assay [2] were 4.47 µM and 5.13 µM, respectively.

Turning to `N#Cc1cccc(N2CCN(CCCCn3nnc4ccccc43)CC2)c1` [II-41, 1-(4-(4-(3-cyanophenyl)piperazine-1-yl)butyl)-1H-benzotriazole], the EC50 in assay [1] is 30.9 µM; in assay [2], 24.5 µM.

Regarding `FC(F)(F)c1cccc(N2CCN(CCCCCn3nnc4ccccc43)CC2)c1` [II-42, 1-(5-(4-(3-trifluoromethylphenyl)piperazine-1-yl)pentyl)-1H-benzotriazole], the EC50 is 40.7 µM in assay [1] and 117 µM in assay [2].

Regarding `c1coc(N2CCN(CCCCn3nnc4ccccc43)CC2)c1` [II-43, 1-(4-(4-(2-furyl)piperazine-1-yl)butyl)-1H-benzotriazole], the EC50 in assay [1] is 35.5 µM; in assay [2], 141 µM.

Consider `c1ccc2c(c1)nnn2CCCCN1CCN(c2ccncc2)CC1` [II-44, 1-(4-(4-(4-pyridyl)piperazine-1-yl)butyl)-1H-benzotriazole], for which the values for the EC50 in assay [1] and in assay [2] were 70.8 µM and 186 µM, respectively.

As for `c1cnc(N2CCN(CCCCn3nnc4ccccc43)CC2)nc1` [II-45, 1-(4-(4-(2-pyrimidinyl)piperazine-1-yl)butyl)-1H-benzotriazole], the EC50 in assay [1] is 46.8 µM; in assay [2], 81.3 µM.

Consider `c1ccc2c(c1)nnn2CCCCN1CCN(C2CCCCC2)CC1` [II-46, 1-(4-(4-cyclohexylpiperazine-1-yl)butyl)-1H-benzotriazole], for which the values for the EC50 in assay [1] and in assay [2] were 55 µM and 120 µM, respectively.

In the case of `c1ccc2c(N3CCN(CCCCn4nnc5ccccc54)CC3)cccc2c1` [II-47, 1-(4-(4-(1-naphthyl)piperazine-1-yl)butyl)-1H-benzotriazole], the EC50 in assay [1] was 132 µM; in assay [2], 288 µM.

As for `c1ccc2nc(N3CCN(CCCCn4nnc5ccccc54)CC3)cnc2c1` [II-48, 1-(4-(4-(2-quinoxalinyl)piperazine-1-yl)butyl)-1H-benzotriazole], the EC50 in assay [1] was 148 µM; in assay [2] it was 372 µM.

Consider `Fc1ccc2c(N3CCN(CCCCn4nnc5ccccc54)CC3)nsc2c1` [II-49, 1-(4-(4-(3-(6-fluorobenzisothiazolyl))piperazine-1-yl)butyl)-1H-benzotriazole], for which the EC50 in assay [1] was 89.1 µM; in assay [2], 141 µM.

For the molecule `Fc1ccc2c(N3CCN(CCCn4nnc5ccccc54)CC3)coc2c1` [II-51, 1-(3-(4-(3-(6-fluorobenzofuranyl))piperazine-1-yl)propyl)-1H-benzotriazole], the EC50 in assay [1] was 30.2 µM; in assay [2], 34.7 µM.

As to `Fc1ccc2c(N3CCN(CCCOn4nnc5ccc(F)cc54)CC3)nsc2c1` [II-53, 6-fluoro-1-(4-(4-(3-(6-fluoro-benzisothiazolyl))piperazine-1-yl)propoxyl)-1H-benzotriazole], the results for the EC50 in assay [1] and in assay [2] were 52.5 µM and 132 µM, respectively.

Take `FC(F)(F)c1cccc(N2CCN(CCCCn3nnc4ccc(Cl)cc43)CC2)c1` [II-54, 6-chloro-1-(4-(4-(3-trifluoromethylphenyl)piperazine-1-yl)butyl)-1H-benzotriazole]: the EC50 in assay [1] is 6.17 µM; in assay [2], 12.3 µM.

For `N#Cc1ccc2nnn(CCCCN3CCN(c4cccc(C(F)(F)F)c4)CC3)c2c1` [II-55, 6-cyano-1-(4-(4-(3-trifluoromethylphenyl)piperazine-1-yl)butyl)-1H-benzotriazole], the EC50 in assay [1] was 97.7 µM; in assay [2], 195 µM.

Regarding `COC(=O)c1ccc2nnn(CCCCN3CCN(c4cccc(C(F)(F)F)c4)CC3)c2c1` [II-56, 6-methoxycarbonyl-1-(4-(4-(3-trifluoromethylphenyl)piperazine-1-yl)butyl)-1H-benzotriazole], the EC50 in assay [1] is 55 µM; in assay [2], 309 µM.

As for `FC(F)(F)c1cccc(N2CCN(CCCCn3ccc4ccccc43)CC2)c1` [II-57, 1-(4-(4-(3-trifluoromethylphenyl)piperazine-1-yl)butyl)-1H-indole], the EC50 in assay [1] is 61.7 µM; in assay [2], 263 µM.

For `N#Cc1ccc2ccn(CCCCN3CCN(c4cccc(Cl)c4)CC3)c2c1` [II-58, 6-cyano-1-(4-(4-(3-chlorophenyl)piperazine-1-yl)butyl)-1H-indole], the EC50 was 67.6 µM in assay [1] and 178 µM in assay [2].

`FC(F)(F)c1cccc(N2CCN(CCCn3ncc4ccccc43)CC2)c1` [II-59, 1-(3-(4-(3-trifluoromethylphenyl)piperazine-1-yl)propyl)-1H-benzopyrazole]: the EC50 is 29.5 µM in assay [1] and 61.7 µM in assay [2].

`N#Cc1ccc2cnn(CCCN3CCN(c4cccc(Cl)c4Cl)CC3)c2c1` [II-60]: the EC50 is 89.1 µM in assay [1] and 155 µM in assay [2].

Take `Fc1ccc2c(C3CCN(CCn4nnc5ccccc54)CC3)noc2c1` [II-94, N-(2-(1-benzotriazolyl)ethyl)-4-(3-(6-fluorobenzisoxazolyl))piperidine]: the response in assay [3] was half-maximal at 1.55 µM (EC50).

Consider `Fc1ccc2c(C3CCN(CCCCn4nnc5ccccc54)CC3)noc2c1` [II-95, N-(4-(1-benzotriazolyl)butyl)-4-(3-(6-fluorobenzisoxazolyl))piperidine], for which it took 1.86 µM to reach a half-maximal effect in assay [3] (EC50).

In assay [3], `N#Cc1ccc2nnn(CCCCN3CCC(c4noc5cc(F)ccc45)CC3)c2c1` [II-96, N-(4-(6-cyanobenzotriazolyl)butyl)-4-(3-(6-fluorobenzisoxazolyl))piperidine] had an EC50 of 4.9 µM.

With `COc1ccc2nnn(CCCN3CCC(c4nsc5cc(F)ccc45)CC3)c2c1` [II-100], the EC50 in assay [3] was 64.6 µM. This EC50 is about 13-fold higher than that of the molecule before.

In assay [3], `COc1ccc2nnn(CCCN3CCC(c4n[nH]c5cc(F)ccc45)CC3)c2c1` [II-101] showed an EC50 of 37.2 µM.

`Clc1cccc(C2CCN(CCCCn3cnc4ccccc43)CC2)c1` [II-124, N-(4-(1H-benzimidazoyl-1-yl)butyl)-4-(3-chlorophenyl)piperidine] showed an EC50 in assay [1] of 9.33 µM. In assay [3], the “−logEC50” value worked out at 5.11 ± 0.02.

As for `Clc1cccc(C2CCN(CCCCn3nnc4ccccc43)CC2)c1` [II-125, N-(4-(1H-benzotriazole-1-yl)butyl)-4-(3-chlorophenyl)piperidine], in assay [1], a half-maximal response (EC50) required 6.92 µM. Also, the “−logEC50” value in assay [3] is 5.27 ± 0.03.

As to `Fc1ccc2c(C3CCN(CCn4nnc5ccccc54)CC3)noc2c1` [II-143, N-(2-(1-benzotriazolyl)ethyl)-4-(3-(6-fluorobenzisoxazolyl))piperidine], the figures for the EC50 in assay [1] and in assay [2] were 1.2 µM and 120 µM, respectively.

As to `Fc1ccc2c(C3CCN(CCCCn4nnc5ccccc54)CC3)noc2c1` [II-144, N-(4-(1-benzotriazolyl)butyl)-4-(3-(6-fluorobenzisoxazolyl))piperidine], the EC50 in assay [1] was 1.1 µM; in assay [2], 110 µM.

As for `N#Cc1ccc2nnn(CCCCN3CCC(c4noc5cc(F)ccc45)CC3)c2c1` [II-145, N-(4-(6-cyanobenzotriazolyl)butyl)-4-(3-(6-fluorobenzisoxazolyl))piperidine], the EC50 was 2.95 µM in assay [1] and 295 µM in assay [2].

On to `COc1ccc2nnn(CCCN3CCC(c4nsc5cc(F)ccc45)CC3)c2c1` [II-149, N-(3-(6-methoxylbenzotriazolyl)propyl)-4-(3-(6-fluorobenzisothiazolyl))piperidine], for which the half-maximal effective concentration (EC50) in assay [1] was 97.7 µM; in assay [2], 490 µM.

Regarding `COc1ccc2nnn(CCCN3CCC(c4n[nH]c5cc(F)ccc45)CC3)c2c1` [II-150, N-(3-(6-methoxylbenzotriazolyl)propyl)-4-(3-(6-fluorobenzopyrazol))piperidine], the EC50 in assay [1] was 74.1 µM; in assay [2], 234 µM.
